Consider 13 compounds from patent US20260062430A1, “INHIBITORS OF KIF18A AND USES THEREOF” (ACCENT THERAPEUTICS, INC., priority 2022, published 2026).

In one series the test system is OVCAR-3 xenografts. As to the kind of experiment: 28 day in vivo efficacy in OVCAR-3 xenografts. Also on record: species or system female NOD SCID mice. The note with it: 10 and 30 mg/kg QD, 28 days. As to the method:
Experiments were performed in female NOD SCID mice (GenPharmatech Co.). Animals were allowed to acclimate for 7 days before the study. The general health of the animals were evaluated by a veterinarian, and complete health checks were performed prior to the study. General procedures for animal care and housing were in accordance with the standard, Commission on Life Sciences, National Research Council, Standard Operating Procedures (SOPs) of Pharmaron, Inc. The mice were kept in laminar flow rooms at constant temperature and humidity with 3-5 mice in each cage. Animals were housed in polycarbonate cages which had dimensions of 300×180×150 mm^3 and in an environmentally monitored, well-ventilated room maintained at a temperature of 23±3° C. and a relative humidity of 40%-70%. Fluorescent lighting provided illumination approximately 12 hours per day. […]
The OVCAR-3 (ATCC) tumor cell lines were maintained in vitro as a monolayer in RPMI 1640 medium supplemented with 20% heat inactivated FBS, at 37° C. in an atmosphere of 5% CO2 in air. The tumor cells were sub-cultured, not exceeding 4-5 passages, and cells growing in an exponential growth phase were harvested and counted for tumor inoculation. […]
The measurement of tumor size was conducted with a caliper and recorded twice per week. […]

Series [1] in a line: In vivo pharmacokinetic evaluation in mouse. The conditions noted are these: female, balb/c nude, plasma, 3 mg/kg IV. More on the design: species or system female balb/c nude mice.
The target of another series is T1, KIF18A (Homo sapiens, UniProt Q8NI77).
T1 construct: A solution of KIF18A (0.4 nM, 5 μL/well; 1-367) in assay buffer
T1 sequence (Q8NI77 1-367): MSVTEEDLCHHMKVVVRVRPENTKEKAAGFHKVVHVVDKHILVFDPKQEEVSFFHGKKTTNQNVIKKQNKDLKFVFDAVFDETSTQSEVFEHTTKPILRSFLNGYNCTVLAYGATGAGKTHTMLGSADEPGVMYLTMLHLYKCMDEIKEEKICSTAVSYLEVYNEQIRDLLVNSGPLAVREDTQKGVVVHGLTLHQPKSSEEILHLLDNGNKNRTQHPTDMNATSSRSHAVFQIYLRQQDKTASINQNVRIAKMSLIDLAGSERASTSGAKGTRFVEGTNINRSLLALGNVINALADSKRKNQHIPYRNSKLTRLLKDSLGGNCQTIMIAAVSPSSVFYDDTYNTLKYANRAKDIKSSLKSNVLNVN
Description: KIF18A Biochemical Assay (ATPase, ADP-Glo). (In general: In ADP-Glo the light output rises with the ADP produced.)

Series [2] is described as follows: Caco-2 permeation assay (bidirectional permeability). The series is classed as in vitro ADME. The conditions noted are these: human, Caco-2, pH 7.4. Here is the method:
Samples were analyzed through LC/MS/MS for estimating the apparent permeability coefficients (Papp) of compounds across Caco-2 cell monolayers. Caco-2 cells (American Type Culture Collection) were incubated and seeded onto HTS Transwell-96 Well Permeable Supports (Corning Corporation) for 14 days using a cell medium consisting of Dulbecco's Modified Eagle's Medium (DMEM) with high glucose and L-glutamine supplemented with 10% FBS, 1× penicillin-streptomycin mixture and 1×non-essential amino acids (NEAA). Cell monolayer integrity was measured using an automated tissue resistance measuring system (World Precision Instruments). Stock solutions of compounds and control compounds in DMSO were diluted with HBSS (10 mM HEPES, pH 7.4) to reach a final concentration of 5 μM with a final concentration of DMSO<0.1%. HBSS was then removed after 30 minutes of preincubation, and 75 μL of test compound was added to the apical compartment of the Transwell insert. The basolateral compartment was filled with 235 μL of HBSS (10 mM HEPES, pH 7.4) containing 2% BSA. Rate of drug transport in the basolateral to apical direction was obtained by adding 235 μL of test compound to the receiver plate wells (basolateral compartment) and filling with 75 μL of HBSS (10 mM HEPES, pH 7.4) containing 2% BSA. Time 0 samples were prepared by transferring 25 μL of […] working solution to wells of the 96-deepwell plate containing 25 μL HBSS (10 mM HEPES and 2% BSA, pH 7.4), followed by the addition 200 μL of cold methanol containing appropriate internal standards (100 nM alprazolam, 200 nM labetalol, 200 nM caffeine and 200 nM diclofenac). After incubating at 37° C. for 2 h, 25 μL samples from donor sides (apical compartment) were transferred to a 96-well plate containing 25 μL HBSS (10 mM HEPES and 2% BSA, pH 7.4). 25 μL samples from receiver sides (basolateral compartment) were removed and transferred to a new plate containing 25 μL HBSS (10 mM HEPES, pH 7.4). 200 μL of cold methanol containing internal standards (100 nM alprazolam, 200 nM labetalol, 200 nM caffeine and 200 nM diclofenac) was added to terminate the reaction. Samples were vortexed for 5 minutes and then centrifuged at 3,220 g for 40 minutes. An aliquot of 100 μL of the supernatant is mixed with 100 μL of ultra-pure water for LC-MS/MS analysis. All incubations are performed in duplicate. Solutions were discarded from the transwell plate. 100 μL Lucifer Yellow solution ([…] in HBSS) was added to each well of transwell insert and 300 μL of HBSS to each well of receiver. After incubating at 37° C. for 30 minutes, 80 μL was aliquoted from each well of apical and basolateral sides to a solid black plate. The plate was then read with Tecan Infinite™ M 200 (Excitation/Emission wavelength […]).
All calculations were carried out using Microsoft Excel. Peak areas were determined from extracted ion chromatograms. The leakage of Lucifer Yellow, in unit of percentage (%), can be calculated using the following equation: […]
LY leakage of <1% is acceptable to indicate the well-qualified Caco-2 monolayers. The apparent permeability coefficient (Papp), in units of centimeter per second, can be calculated for Caco-2 drug transport assays using the following equation: […]
Where VA is the volume (in mL) in the receiver well (0.235 mL for Ap→Bl flux and 0.075 mL for Bl→Ap flux), Area is the surface area of the membrane (0.143 cm^2 for HTS Transwell-96 Well Permeable Supports), and time is the total transport time in seconds. The efflux ratio can be determined using the following equation: […]
Where Papp (B-A) indicates the apparent permeability coefficient in basolateral to apical direction, and Papp (A-B) indicates the apparent permeability coefficient in apical to basolateral direction.
The recovery can be determined using the following equation: […]

Another series deals with OVCAR-3 cells. As to the kind of experiment: In vitro anti-proliferative activity assay in cancer cell line OVCAR-3 (CTG). The conditions noted are these: 7-day assay, read-out: OVCAR-3 cellular antiproliferation assay IC50. It counts as cell-based.

Like-named read-outs stand apart in the source and are kept apart here.

A word on the clearance: it is a measure of how efficiently the substance is removed, as volume per time. A word on the efflux ratio: it is the permeability from basolateral to apical divided by that in the opposite direction, in the common usage.

For the compound `Cc1cc(NC(=O)c2ccc(NS(=O)(=O)CCO)cc2N2CC[C@@]3(C(F)F)C[C@H]3C2)nc(N2CCC(F)(F)CC2)n1` (single isomer, unassigned) [Example 29b], the Tumor growth result in the series with OVCAR-3 xenografts is “significant reduction in tumor growth in a dose-dependent manner”. Besides, the clearance in series [1] is 3.3 mL/min/kg.

For the compound `Cc1cc(NC(=O)c2c(F)cc(NS(=O)(=O)CCO)cc2N2CC[C@@]3(C)C[C@H]3C2)nc(N2CCC(F)(F)CC2)n1` (single isomer, unassigned) [Example 31b], the IC50 on KIF18A is less than 100 nM. As to `Cc1cc(NC(=O)c2ccc(NS(=O)(=O)CCO)cc2N2CC[C@@]3(F)CC[C@H]3C2)nc(N2CCC(F)(F)CC2)n1` (single isomer, unassigned) [Example 50b], the clearance in series [1] stood at 0.74 mL/min/kg. On the same count and under the same terms, with `Cc1cc(NC(=O)c2ccc(NS(=O)(=O)CCO)cc2N2CC[Si](C)(C)CC2)nc(C2CCC(F)(F)CC2)n1` [Example 1, N-(2-(4,4-difluorocyclohexyl)-6-methylpyrimidin-4-yl)-2-(4,4-dimethyl-1,4-azasilinan-1-yl)-4-((2-hydroxyethyl)sulfonamido)benzamide] the figure was 3.6 mL/min/kg; with `Cc1cc(NC(=O)c2ccc(NS(=O)(=O)CCO)cc2N2CC[Si](C)(C)CC2)nc(N2CCC(F)(F)CC2)n1` [Example 9, N-[2-(4,4-difluoropiperidin-1-yl)-6-methylpyrimidin-4-yl]-2-(4,4-dimethyl-1,4-azasilinan-1-yl)-4-(2-hydroxyethanesulfonamido)benzamide], 1.7 mL/min/kg. As for `C[Si]1(C)CCN(c2cc(NS(=O)(=O)CCO)ccc2C(=O)Nc2ccnc(OCCC(F)(F)F)n2)CC1` [Example 10], the efflux ratio at 2 h, 5 μM in series [2] is less than 10. In the case of `Cc1cc(NC(=O)c2ccc(NS(=O)(=O)CCO)cc2N2CC[C@]3(C)C[C@@H]3C2)nc(C2CCC(F)(F)CC2)n1` [Example 62], the IC50 on KIF18A was less than 100 nM; in the series on OVCAR-3 cells (Homo sapiens, OVCAR-3, 168 h), less than 100 nM. The efflux ratio at 2 h, 5 μM in series [2] is less than 10. For the compound `Cc1cc(NC(=O)c2ccc(NS(=O)(=O)CCO)cc2N2CC[C@@]3(C)C[C@H]3C2)nc(C2CCC(F)(F)CC2)n1` [Example 63], the IC50 against KIF18A is less than 100 nM; in the series on OVCAR-3 cells (Homo sapiens, OVCAR-3, 168 h) it was less than 100 nM.

As for `O=C(Nc1ccnc(N2CCC(F)(F)CC2)n1)c1c(F)cc(NS(=O)(=O)CCO)cc1N1CC[C@@]2(C(F)F)C[C@H]2C1` [Example 84], in the series with OVCAR-3 cells, the IC50 was in the range of 100 to 500 nM. Besides, the efflux ratio at 2 h, 5 μM in series [2] was less than 10. Turning to `Cc1cc(NC(=O)c2ccc(NS(=O)(=O)CCO)cc2N2CC[C@@]3(C(F)(F)F)C[C@H]3C2)nc(N2CCC(F)(F)CC2)n1` [Example 85], the IC50 is less than 100 nM at KIF18A and 100 to 500 nM in the series on OVCAR-3 cells (Homo sapiens, OVCAR-3, 168 h). Consider `Cc1cc(NC(=O)c2ccc(NS(=O)(=O)CCO)cc2N2CC[C@]3(C(F)(F)F)C[C@@H]3C2)nc(N2CCC(F)(F)CC2)n1` [Example 86], for which the IC50 on KIF18A was less than 100 nM; in the series with OVCAR-3 cells (Homo sapiens, OVCAR-3, 168 h), 100 to 500 nM. In series [2], the efflux ratio at 2 h, 5 μM was less than 10. Take `Cc1cc(NC(=O)c2ccc(NS(=O)(=O)NCCO)cc2N2CC[Si](C)(C)CC2)nc(C2CCC(F)(F)CC2)n1` [Example 117]: the IC50 on KIF18A was 100 to 500 nM; in the series on OVCAR-3 cells (Homo sapiens, OVCAR-3, 168 h), 100 to 500 nM. Moreover, in series [2], the efflux ratio at 2 h, 5 μM is less than 10. As to `Cc1cc(NC(=O)c2ccc(NS(=O)(=O)N(C)CCO)cc2N2CC[Si](C)(C)CC2)nc(C2CCC(F)(F)CC2)n1` [Example 134], the IC50 against KIF18A was less than 100 nM; with OVCAR-3 cells (Homo sapiens, OVCAR-3, 168 h) it was 100 to 500 nM. Further, in series [2], the efflux ratio at 2 h, 5 μM is less than 10.
